According to ChEMBL document CHEMBL5370675, “Identification of HuR-RNA Interfering Compounds by Dynamic Combinatorial Chemistry and Fluorescence Polarization” (ACS Med Chem Lett, 2023):
The source made the active and inactive calls. No cut-off for these calls is given here.

Columns and labels:
[1] = Retention time of the compound in acetate buffer by HPLC-UV analysis; format: physicochemical
[2] = biological target: ELAV-like protein 1 (Homo sapiens) (UniProt Q15717); assay: Inhibition of HuR (unknown origin) assessed as reduction in protein-mRNA interaction at 0.5 to 100 uM preincubated for 1 hr followed by mRNA addition and measured after 1.5 hrs by fluorescence polarization assay; conditions: dose 0.5-100 µM, time 2.5 hrs
Chain of ELAV-like protein 1 (Homo sapiens) (Q15717 whole entry): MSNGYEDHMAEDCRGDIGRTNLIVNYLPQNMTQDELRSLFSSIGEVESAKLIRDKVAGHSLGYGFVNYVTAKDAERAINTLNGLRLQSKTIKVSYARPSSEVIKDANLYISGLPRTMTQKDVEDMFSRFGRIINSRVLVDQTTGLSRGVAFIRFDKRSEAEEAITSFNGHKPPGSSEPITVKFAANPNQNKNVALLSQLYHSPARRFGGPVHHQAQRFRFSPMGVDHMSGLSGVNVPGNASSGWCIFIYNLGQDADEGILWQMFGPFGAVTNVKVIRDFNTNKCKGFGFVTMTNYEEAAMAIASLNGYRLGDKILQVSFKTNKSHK

Retention_time [1]	inhibition [2]	SMILES
12.86 min	Active	O=C(COc1ccc(Cl)cc1Cl)N/N=C/c1csc(Br)n1
	Active	Cc1cccc(Cn2nc(C(C)(C)C)cc2C(=O)N/N=C/c2ccc3cn[nH]c3c2)c1
	Active	Cc1cccc(Cn2nc(C(C)(C)C)cc2C(=O)N/N=C/c2csc(Br)n2)c1
